# Test results as given in patent publication US9834514B2, “Antibiotic sensitivity-restoring and photosensitive agents” (New Mexico Tech Research Foundation, priority 2015, dated 2017).
# Read-outs that look alike come from different tables or passages of the source.
# Tests used:
# MRSA = assay: Resensitization to antibiotics (log reduction, TABLE 29); format: cell-based, S. aureus
# Method: In a 96-well microtiter plate, two-fold dilutions were made of each drug (starting with 100 μM) in 100 μL of a cell suspension in TSB. The resulting samples were incubated overnight at 37° C. on a rotary shaking incubator at 100 rpm. The samples were then visually inspected for turbidity. A 20% well volume of MTT reagent (5 mg/mL) was subsequently added, and the samples were incubated for about 20 minutes.
# VRE = assay: as above; format: cell-based, Enterococcus faecalis
# [1] = tested on: A. baumannii (ATCC 15151); assay: MIC against A. baumannii; format: cell-based; conditions: Acinetobacter baumannii, ATCC15151
# Method: TABLE 28 details the individual MIC values of compounds 1, 7, 8, 9, 10, 11, PMB, PME, and light against A. baumannii.
# The MICs of PME and compounds 8-11 were determined against A. baumannii (ATCC 15151). […] After incubating the cells with PME, a compound (5 μM) was added, and the samples were further incubated at 37° C. At specific time points, samples were taken and diluted ten-fold in media. Ten microliters of each dilution was then drip-streaked onto an agar plate and incubated overnight at 37° C. Colony counts were then performed, and the CFU/mL were calculated.
# [2] = MIC against MRSA isolates; format: cell-based, S. aureus; conditions: Staphylococcus aureus
# Method: The MICs of S. aureus ATCC 33591, BAA-44, BAA-1707, BAA-1717, BAA-1720, BAA-1747, BAA-1754, BAA-1761, BAA-1763, BAA-1764, and BAA-1766 were measured using a cell concentration of about 5×10^5 colony forming units (CFU)/mL. In a 96-well microtiter plate, two-fold dilutions were made of each drug (starting with 100 μM) in 100 μL of a cell suspension in trypticase soy broth (TSB). The samples were incubated overnight at 37° C. on a rotary shaking incubator set at 100 revolutions per minute (rpm) and were visually inspected for turbidity. A 20% well-volume of 3-(4,5-dimethylthiazol-2-yl)-2,5-diphenyltetrazolium bromide (MTT reagent, 5 mg/mL) was added, and the samples were incubated for about 20 minutes. The MICs were determined as the lowest concentration at which full visual inhibition was observed by the unaided eye.
# drug-resistant bacteria = assay: Summary of synergistic activities with antibiotic families (TABLE 45); format: cell-based; conditions: for Synergy with Oxacillin (β-lactama): *indicated ampicillin, dicloxicillin and Penicillin G
# From the text: TABLE 45 summarizes the synergistic activities of the seven classes of clinically used antibiotics and compounds of the invention against a variety of different drug-resistant bacteria.
# P. aeruginosa = assay: Cell killing with compounds and PME at fixed concentrations, with and without white light; format: cell-based; conditions: for Co-treatment with PME: log reduction in the CFU/mL compared to PME alone: 20 μM compound and 0.1 μg/mL PME
# Method: FIG. 26 is an example of the treatment of P. aeruginosa with compound 1 and PME at fixed concentrations.
# P. aeruginosa cells were also treated with white light upon being incubated with compound 1 for different durations of time. In a 12×75 mm borosilicate glass culture tube, 1 mL of cell suspension was added. PME was added to the cells, and the samples were mixed using a vortex mixer. The resulting samples were incubated for 1.5 hours at 37° C. on a rotary shaking incubator at 100 rpm. Compound 1 was then added, and the samples were incubated for 30 minutes at 37° C. on a rotary shaking incubator at 100 rpm. The samples were then irradiated with white light using a Lumacare™ LC-122 for 2 minutes (irradiation λ1) and incubated overnight at 37° C. The samples were irradiated again with white light using a Lumacare™ LC-122 for 2 minutes (irradiation λ2). Ten-fold dilutions were made of each sample, and 10 μL of each dilution was drip-streaked onto an agar plate. The samples were incubated overnight at 37° C., and colony counts were performed to calculate CFU/mL.
# FIG. 55 is an illustrative example of the treatment of P. aeruginosa with compound 1, PME, co-treatment with compound 1 and PME, and co-treatment with compound 1, PME, and light (λ1 and λ2) at fixed concentrations.
# S. aureus (ATCC 29213) = assay: microbe, parasite or virus in culture; format: cell-based; conditions: for MIC: Staphylococcus aureus, ATCC29213, read-out: Final MIC Apr. 16, 2015
# Method: Each mixture was incubated at 37° C. on a rotary shaking incubator for about 16 hours. MTT was then added to assess the viability of the cells (at 10% well volume). […] The cells were then streaked onto a TSA plate and incubated overnight at 37° C. These steps were repeated to reach a total of 30 exposures.
# [3] = MRSA (ATCC BAA-44), TABLE 21, read-out: MRSA MIC
# [4] = MRSA isolate ATCC BAA-44, read-out: MIC
# [5] = MRSA isolate ATCC 33591, read-out: MIC
# [6] = MRSA isolate ATCC BAA-1707, read-out: MIC
# [7] = MRSA isolate ATCC BAA-1717, read-out: MIC
# [8] = MRSA isolate ATCC BAA-1720, read-out: MIC
# [9] = MRSA isolate ATCC BAA-1747, read-out: MIC
# [10] = MRSA isolate ATCC BAA-1754, read-out: MIC
# [11] = MRSA isolate ATCC BAA-1761, read-out: MIC
# [12] = MRSA isolate ATCC BAA-1763, read-out: MIC
# [13] = MRSA isolate ATCC BAA-1764, read-out: MIC
# [14] = MRSA isolate ATCC BAA-1766, read-out: MIC
SMILES,MIC [1],"MIC [2, 3]","MIC [2, 4]",Co-treatment with PME: log reduction in the CFU/mL compared to PME alone (P. aeruginosa),Resistance Evolved (S. aureus (ATCC 29213)),"MIC [2, 5]","MIC [2, 6]","MIC [2, 7]","MIC [2, 8]","MIC [2, 9]","MIC [2, 10]","MIC [2, 11]","MIC [2, 12]","MIC [2, 13]","MIC [2, 14]",Synergy with Polymyxin B (Polypeptides) (drug-resistant bacteria; A. baumannii ATCC 15151),Synergy with Polymyxin E (Polypeptides) (drug-resistant bacteria; A. baumannii ATCC 15151),Synergy with Polymyxin B (Polypeptides) (drug-resistant bacteria; CRE ATCC 1705),Synergy with Polymyxin E (Polypeptides) (drug-resistant bacteria; CRE ATCC 1705),Synergy with Polymyxin B (Polypeptides) (drug-resistant bacteria; CRE ATCC 2340),further results
Clc1ccc(/C=C/c2[nH]c3ccccc3c2/C=C/c2ccc(Cl)cc2)cc1 [Compound 1],> 100 µM,400 µM,400 µM,2-log reduction,,,,,,,,,,,,,,,,,"Log Reduction (MRSA; compound 1 μM, MRSA ATCC BAA-1717, Light (2 min)): 6; Log Reduction (MRSA; compound 10 μM, Norfloxacin (20 μg/mL)): 9; Log Reduction (MRSA; compound 10 μM, Oxacillin (100 μg/mL)): 7-8; Log Reduction (MRSA; compound 10 μM, Tetracycline (0.1 μg/mL)): 5-6; Log Reduction (MRSA; compound 10 μM, Tobramycin (100 μg/mL)): 9; Log Reduction (VRE; compound 1 μM, Light (2 min)): 8-9; Synergy with Erythromycin (Macrolides) (drug-resistant bacteria; MRSA ATCC BAA-44): Synergy (1); Synergy with Tetracycline (Tetracyclines) (drug-resistant bacteria; MRSA ATCC BAA-44, †includes doxycycline): Synergy† (1); Co-treatment with PME: log reduction in the CFU/mL compared to PME alone (P. aeruginosa; listed as compound 1): ~2 log reduction; reduction in the CFU/mL compared to co-treatment with compound 1 and PME (P. aeruginosa; additional irradiation after an overnight incubation (λ2), FIG. 55): negligible reduction; log reduction in the CFU/mL compared to co-treatment with compound 1 and PME (P. aeruginosa; light immediately after a 30 minute incubation with compound 1 (λ1), FIG. 55): ~8 log; PDT (P. aeruginosa; with white light, TABLE 19): ~7-log reduction"
Brc1ccc(/N=N/c2c[nH]c3ccccc23)cc1 [Compound 8],> 100 µM,15 µM,15 µM,4-log reduction,No,3.1 to 6.3 µM,6.3 µM,6.3 µM,6.3 µM,6.3 µM,12.5 µM,12.5 µM,6.3 µM,12.5 µM,12.5 µM,Synergy,Synergy,Synergy,Synergy,Synergy,"Log Reduction (VRE; compound 7.5 μM, Tetracycline (1.5 μg/mL)): 3-4; Log Reduction (VRE; compound 7.5 μM, Vancomycin (3.5 μg/mL)): 3; Synergy with Polymyxin E (Polypeptides) (drug-resistant bacteria; CRE ATCC 2340): Synergy; Synergy with Polymyxin B (Polypeptides) (drug-resistant bacteria; CRE ATCC 2341): Synergy; Synergy with Polymyxin E (Polypeptides) (drug-resistant bacteria; CRE ATCC 2341): Synergy; Synergy with Polymyxin B (Polypeptides) (drug-resistant bacteria; CRE ATCC 2342): Synergy; Synergy with Polymyxin E (Polypeptides) (drug-resistant bacteria; CRE ATCC 2342): Synergy; Synergy with Norfioxacin (Fluoroquinolones) (drug-resistant bacteria; MRSA ATCC BAA-44): Synergy; Synergy with Oxacillin (β-lactama) (drug-resistant bacteria; MRSA ATCC BAA-44): Synergy*; Synergy with Polymyxin B (Polypeptides) (drug-resistant bacteria; P. aeruginosa ATCC 27853): Synergy; Synergy with Polymyxin E (Polypeptides) (drug-resistant bacteria; P. aeruginosa ATCC 27853): Synergy; Synergy with Norfioxacin (Fluoroquinolones) (drug-resistant bacteria; VRE ATCC 51299): Synergy; Synergy with Tetracycline (Tetracyclines) (drug-resistant bacteria; VRE ATCC 51299): Synergy; Synergy with Vancomycin (Glycopeptides) (drug-resistant bacteria; VRE ATCC 51299): Synergy; Co-treatment with PME: log reduction in the CFU/mL compared to PME alone (P. aeruginosa; listed as compound 8): ~4 log reduction"
Clc1ccc(/N=N/c2c[nH]c3ccccc23)cc1 [Compound 9],> 100 µM,16 µM,16 µM,2-log reduction,No,12.5 µM,12.5 µM,6.3 to 12.5 µM,12.5 µM,12.5 µM,12.5 µM,12.5 µM,12.5 µM,12.5 µM,12.5 µM,Synergy,Synergy,Synergy,Synergy,Synergy,"Log Reduction (MRSA; compound 8 μM, Oxacillin ([…])): 2-3; MIC (S. aureus (ATCC 29213)): 8 µM; Synergy with Polymyxin E (Polypeptides) (drug-resistant bacteria; CRE ATCC 2340): Synergy; Synergy with Polymyxin B (Polypeptides) (drug-resistant bacteria; CRE ATCC 2341): Synergy; Synergy with Polymyxin E (Polypeptides) (drug-resistant bacteria; CRE ATCC 2341): Synergy; Synergy with Polymyxin B (Polypeptides) (drug-resistant bacteria; CRE ATCC 2342): Synergy; Synergy with Polymyxin E (Polypeptides) (drug-resistant bacteria; CRE ATCC 2342): Synergy; Synergy with Norfioxacin (Fluoroquinolones) (drug-resistant bacteria; MRSA ATCC BAA-44): Synergy; Synergy with Oxacillin (β-lactama) (drug-resistant bacteria; MRSA ATCC BAA-44): Synergy*; Synergy with Polymyxin B (Polypeptides) (drug-resistant bacteria; P. aeruginosa ATCC 27853): Synergy; Synergy with Polymyxin E (Polypeptides) (drug-resistant bacteria; P. aeruginosa ATCC 27853): Synergy; Synergy with Norfioxacin (Fluoroquinolones) (drug-resistant bacteria; VRE ATCC 51299): Synergy; Synergy with Tetracycline (Tetracyclines) (drug-resistant bacteria; VRE ATCC 51299): Synergy; Synergy with Vancomycin (Glycopeptides) (drug-resistant bacteria; VRE ATCC 51299): Synergy; Co-treatment with PME: log reduction in the CFU/mL compared to PME alone (P. aeruginosa; listed as compound 9): ~2 log reduction"
Clc1ccc(Oc2c(-c3ccc(Cl)cc3)[nH]c3ccc(Cl)cc23)cc1 [Compound 11],> 100 µM,8 µM,4 µM,2-log reduction,Yes,6.3 to 12.5 µM,12.5 µM,3.1 to 6.3 µM,3.1 to 6.3 µM,6.3 to 12.5 µM,50 to 100 µM,50 to 100 µM,50 µM,50 µM,50 to 100 µM,Synergy,Synergy,Synergy,Synergy,Synergy,MIC (S. aureus (ATCC 29213)): > 256 µM; Synergy with Polymyxin E (Polypeptides) (drug-resistant bacteria; CRE ATCC 2340): Synergy; Synergy with Polymyxin B (Polypeptides) (drug-resistant bacteria; CRE ATCC 2341): Synergy; Synergy with Polymyxin E (Polypeptides) (drug-resistant bacteria; CRE ATCC 2341): Synergy; Synergy with Polymyxin B (Polypeptides) (drug-resistant bacteria; CRE ATCC 2342): Synergy; Synergy with Polymyxin E (Polypeptides) (drug-resistant bacteria; CRE ATCC 2342): Synergy; Synergy with Norfioxacin (Fluoroquinolones) (drug-resistant bacteria; MRSA ATCC BAA-44): Synergy; Synergy with Oxacillin (β-lactama) (drug-resistant bacteria; MRSA ATCC BAA-44): Synergy*; Synergy with Polymyxin B (Polypeptides) (drug-resistant bacteria; P. aeruginosa ATCC 27853): Synergy; Synergy with Polymyxin E (Polypeptides) (drug-resistant bacteria; P. aeruginosa ATCC 27853): Synergy; Synergy with Norfioxacin (Fluoroquinolones) (drug-resistant bacteria; VRE ATCC 51299): Synergy; Synergy with Tetracycline (Tetracyclines) (drug-resistant bacteria; VRE ATCC 51299): Synergy; Synergy with Vancomycin (Glycopeptides) (drug-resistant bacteria; VRE ATCC 51299): Synergy; Co-treatment with PME: log reduction in the CFU/mL compared to PME alone (P. aeruginosa; listed as compound 11): about 2 log reduction
